Experiment [1] deals with A-site RNA (RNA, rRNA) CGGCGUCACACCUCGGGGUGAAGUCGCCG
Put plainly: fluorescent intercalator displacement (FID). The settings on record: 100 mM KCl, 4 mM MgCl2, 20 mM Tris-HCl pH 7.0, TO-PRO displaced, RNA 0.5 μM.

Experiment [2] has as its system NEAT1_2 TH (RNA, triplex) AGGUGUUUCUUUUACUGAGUGCAGCCC/UGGCCGCACUCAGGUUUUGCUUUUCACCUUCCCAUCUGUGAAAGAGUGAGCAGGAAAAAGCAAAA
Put plainly: fluorescent intercalator displacement (FID) screen. The settings on record: 100 mM KCl, 4 mM MgCl2, 20 mM Tris-HCl pH 7.0, 2% DMSO, TO-PRO displaced, RNA 0.25 μM, hit at 10 μM.

For experiment [3], the system named is NEAT1_2 TH (5' biotin-TEG, immobilized) (RNA, triplex) AGGUGUUUCUUUUACUGAGUGCAGCCC/UGGCCGCACUCAGGUUUUGCUUUUCACCUUCCCAUCUGUGAAAGAGUGAGCAGGAAAAAGCAAAA
Put plainly: grating-coupled interferometry (waveRAPID). The settings on record: 150 mM NaCl, 4 mM MgCl2; 10 mM HEPES pH 7.4, 0.005% Tween-20, 1% DMSO, 25°C; tested at 10 μM.

The subject of experiment [4] is NEAT1_2 TH (RNA, triplex) AGGUGUUUCUUUUACUGAGUGCAGCCC/UGGCCGCACUCAGGUUUUGCUUUUCACCUUCCCAUCUGUGAAAGAGUGAGCAGGAAAAAGCAAAA
Description: fluorescent intercalator displacement (FID). The settings on record: 100 mM KCl, 4 mM MgCl2, 20 mM Tris-HCl pH 7.0, TO-PRO displaced, RNA 0.5 μM.

Experiment [5] has as its system A-site RNA (RNA, rRNA) CGGCGUCACACCUCGGGGUGAAGUCGCCG
Description: fluorescence increase on binding. The settings on record: 100 mM KCl, 4 mM MgCl2; 20 mM Tris-HCl pH 7.0; RNA 0.5 μM, equimolar dye; 116.3-fold fluorescence increase.

Experiment [6] deals with NEAT1_2 TH (RNA, triplex) AGGUGUUUCUUUUACUGAGUGCAGCCC/UGGCCGCACUCAGGUUUUGCUUUUCACCUUCCCAUCUGUGAAAGAGUGAGCAGGAAAAAGCAAAA
Description: fluorescence increase on binding. The settings on record: 100 mM KCl, 4 mM MgCl2; 20 mM Tris-HCl pH 7.0; RNA 0.5 μM, equimolar dye; 220.7-fold fluorescence increase.

Experiment [7] relates to fragment 1 (f1), biotinylated (RNA, single strand) AGGUGUUUCUUUUACUGAGUGCAGCCC
Description: grating-coupled interferometry (waveRAPID). The settings on record: 150 mM NaCl, 4 mM MgCl2; 10 mM HEPES pH 7.4, 0.005% Tween-20, 1% DMSO, 25°C; tested at 10 μM.

For experiment [8], the system named is fragment 2 (f2), biotinylated (RNA, other) UGGCCGCACUCAGGUUUUGCUUUUCACCUUCCCAUCUGUGAAAGAGUGAGCAGGAAAAAGCAAAA
Description: grating-coupled interferometry (waveRAPID). The settings on record: 150 mM NaCl, 4 mM MgCl2; 10 mM HEPES pH 7.4, 0.005% Tween-20, 1% DMSO, 25°C; tested at 10 μM.

Molecules are shown by their SMILES.

In the case of `CC(=O)NC[C@H]1CN(c2ccc(N3CCOCC3)c(F)c2)C(=O)O1`, the binding result in experiment [1] (no effect at 50 μM) was “no”.

`CC(=O)c1c(O)c(C)c(O)c(Cc2c(O)c3c(c(C(=O)/C=C/c4ccccc4)c2O)OC(C)(C)C=C3)c1O`: the binding entry in experiment [2] (not confirmed by GCI) is listed as “yes”; in experiment [3] it was “no”.

Regarding `CC1(C)CC(Oc2ccc(-c3ccc(-c4cn[nH]c4)cc3O)nn2)CC(C)(C)N1`, the binding entry in experiment [4] (at higher concentration) and in experiment [1] (at higher concentration) was “weak” in each case.

For the molecule `CN[C@@H]1[C@@H](O)[C@@H](O[C@@H]2[C@@H](O)[C@H](O[C@H]3O[C@H]([C@@H](C)O)[C@@H](O)[C@H](O)[C@H]3N)[C@@H](N)C[C@H]2N)OC[C@]1(C)O`, the binding entry in experiment [4] (fluorescence to 0.72, higher concentration only) is recorded as “weak”; in experiment [1] (both concentrations) it was “yes”.

Regarding `CNc1ncc(CN2CCCC(c3nc(-c4cccs4)cc(=O)[nH]3)C2)cn1` (centres unmarked), the binding entry in experiment [4] (two concentrations) and in experiment [1] (two concentrations) was “no” each time.

As for `COc1ccc(Br)cc1S(=O)(=O)NC(=O)/C=C/c1ccccc1Cc1ccc2ccccc2c1`, the binding entry in experiment [2] is given as “yes”.

For `C[n+]1c(C=C2C=CN(CCC[N+](C)(C)C)c3ccccc32)sc2ccccc21`, the binding result in experiment [5] and in experiment [6] was “yes” throughout.

As for `Cc1cc(O)c2c(c1)C(=O)c1cc(O)cc(O)c1C2=O`, the binding result in experiment [7] is reported as “no”; in experiment [2] it was “yes”; in experiment [8] it was “no”.

`NCCOc1cc(C(=O)Nc2cc(OCCN)c3ccccc3n2)nc(C(=O)Nc2cc(OCCN)c3ccccc3n2)c1`: the binding entry in experiment [2] was “yes”.

For the molecule `NC[C@@H]1O[C@H](O[C@H]2[C@@H](O)[C@H](O[C@@H]3[C@@H](O)[C@H](N)C[C@H](N)[C@H]3O[C@H]3O[C@H](CO)[C@@H](O)[C@H](O)[C@H]3N)O[C@@H]2CO)[C@H](N)[C@@H](O)[C@@H]1O`, the binding entry in experiment [4] (fluorescence 0.61 at 50, 0.34 at 500 μM) was “yes”; in experiment [1] (fluorescence to 0.08 at 50 and 500 μM), “yes”.

Consider `O=C(N[C@H](CO)[C@H](O)c1ccc([N+](=O)[O-])cc1)C(Cl)Cl`, for which the binding result in experiment [4] (no effect at 50 μM), in experiment [3] and in experiment [1] (no effect at 50 μM) was “no” throughout.

Consider `O=C(O)C1=CC(=C(c2ccc(O)c(C(=O)O)c2)c2ccc(O)c(C(=O)O)c2)C=CC1=O`, for which, in experiment [2], the binding result is recorded as “yes”.

With `O=C1Nc2ccc(I)cc2/C1=C/c1cc(Br)c(O)c(Br)c1`, the binding entry in experiment [2] is “yes”.

For `O=C1c2c(O)ccc(O)c2C(=O)c2c(NCCNCCO)ccc(NCCNCCO)c21`, the binding result in experiment [2] is recorded as “yes”.

For the molecule `O=c1c(O)c(-c2cc(O)c(O)c(O)c2)oc2cc(O)cc(O)c12`, in experiment [2], the binding result is “yes”.

Take `O=c1c(O)c(-c2ccc(O)c(O)c2)oc2cc(O)cc(O)c12`: in experiment [2], the binding result is on record as “yes”.

The values above are taken from article PMC9723620 (2022).
